Assay results as given in PMC10141580, “Cyclic Dichalcogenides Extend the Reach of Bioreductive Prodrugs to Harness Thiol/Disulfide Oxidoreductases: Applications to seco-Duocarmycins Targeting the Thioredoxin System” (ACS Central Science, 2023).
Read-outs that look alike come from different tables or passages of the source.

Tested on: panel of 140 standard cancer cell lines
Test: ProliFiler-140 cancer cell line screen (CellTiterGlo, 72 h)
Type: cell-based
Experimental: Incubations were performed for 72 h before automated viability readout with CellTiterGlo (Figure 8).
End of Figure S11 (part 5 of 5): ProliFiler-140 cancer cell line screening for cytotoxicity of the prodrugs.
8-data-point dose response curves from CellTiter-Glo® viability readout.
ProliFiler-140 cell line panel part V

## COc1cccc2c1C(=O)c1c(O)c3c(c(O)c1C2=O)C[C@@](O)(C(=O)CO)C[C@@H]3O[C@H]1C[C@H](N)[C@H](O)[C@H](C)O1 [doxorubicin, reference compound]
Homo sapiens, NCI-H2009, NCI-H2009 (Lung), read-out: IC50 [M] (ProliFiler-140)
  IC50: 1.41e-07 M
Homo sapiens, NCI-H2228, H2228 (Lung), read-out: IC50 [M] (ProliFiler-140)
  IC50: 5.73e-08 M
Homo sapiens, NCI-H2286, NCI-H2286 (Lung), read-out: IC50 [M] (ProliFiler-140)
  IC50: 4.4e-08 M
Homo sapiens, NCI-N87, NCI-N87 (Stomach), read-out: IC50 [M] (ProliFiler-140)
  IC50: 2e-07 M
Homo sapiens, OCI-AML-3, OCI-AML3 (Blood), read-out: IC50 [M] (ProliFiler-140)
  IC50: 7.6e-08 M
Homo sapiens, OCI-AML-5, OCI-AML5 (Blood), read-out: IC50 [M] (ProliFiler-140)
  IC50: 3.1e-08 M
Homo sapiens, OCI-LY19, OCI-LY19 (Blood), read-out: IC50 [M] (ProliFiler-140)
  IC50: 5.55e-09 M
Homo sapiens, OPM-2, OPM-2 (Blood), read-out: IC50 [M] (ProliFiler-140)
  IC50: 2.43e-07 M
Homo sapiens, OVCAR-3, OVCAR-3 (Ovary), read-out: IC50 [M] (ProliFiler-140)
  IC50: 3.7e-07 M
Homo sapiens, OVCAR-3, OVCAR-3, read-out: IC50
  IC50: 3.7e-07 M
Homo sapiens, P31-FUJ, P31/FUJ (Blood), read-out: IC50 [M] (ProliFiler-140)
  IC50: 1e-07 M
Homo sapiens, PANC-1, PANC-1 (Pancreas), read-out: IC50 [M] (ProliFiler-140)
  IC50: 8e-07 M
Homo sapiens, RL95-2, RL95-2 (Endometrium), read-out: IC50 [M] (ProliFiler-140)
  IC50: 1.97e-07 M
Homo sapiens, RPMI-8226, RPMI 8226 (Blood), read-out: IC50 [M] (ProliFiler-140)
  IC50: 8.84e-08 M
Homo sapiens, SAOS-2, Saos-2 EC (Bone), read-out: IC50 [M] (ProliFiler-140)
  IC50: 2.02e-07 M
Homo sapiens, SCLC-21H, SCLC-21H (Lung), read-out: IC50 [M] (ProliFiler-140)
  IC50: 2.91e-07 M
Homo sapiens, SJSA-1, SJSA-1 (Bone), read-out: IC50 [M] (ProliFiler-140)
  IC50: 4.01e-07 M
Homo sapiens, SK-BR-3, SK-BR-3 (Breast), read-out: IC50 [M] (ProliFiler-140)
  IC50: 1.3e-07 M
Homo sapiens, SK-ES1, SK-ES-1 (Bone), read-out: IC50 [M] (ProliFiler-140)
  IC50: 2.61e-08 M
Homo sapiens, SK-LU-1, SK-LU-1 (Lung), read-out: IC50 [M] (ProliFiler-140)
  IC50: 2.7e-07 M
Homo sapiens, SK-MEL3, SK-MEL-3 (Skin), read-out: IC50 [M] (ProliFiler-140)
  IC50: 5.1e-07 M
Homo sapiens, SK-N-FI, SK-N-FI (Brain), read-out: IC50 [M] (ProliFiler-140)
  IC50: 1.36e-06 M
Homo sapiens, SK-N-MC, SK-N-MC (Brain), read-out: IC50 [M] (ProliFiler-140)
  IC50: 1.5e-08 M
Homo sapiens, SK-N-SH, SK-N-SH (Brain), read-out: IC50 [M] (ProliFiler-140)
  IC50: 9.8e-08 M
Homo sapiens, SK-OV-3, SK-OV3 (Ovary), read-out: IC50 [M] (ProliFiler-140)
  IC50: 1.76e-07 M
Homo sapiens, SNU1, SNU-1 (Stomach), read-out: IC50 [M] (ProliFiler-140)
  IC50: 5.9e-08 M
Homo sapiens, SNU-16, SNU-16 (Stomach), read-out: IC50 [M] (ProliFiler-140)
  IC50: 1.37e-07 M
Homo sapiens, SU-DHL-5, SU-DHL-5 (Blood), read-out: IC50 [M] (ProliFiler-140)
  IC50: 9.1e-09 M
Homo sapiens, SW480, SW480 (Colon), read-out: IC50 [M] (ProliFiler-140)
  IC50: 1.2e-07 M
Homo sapiens, SW948, SW948 (Colon), read-out: IC50 [M] (ProliFiler-140)
  IC50: 3.46e-07 M
Homo sapiens, SW1783, SW-1783 (Brain), read-out: IC50 [M] (ProliFiler-140)
  IC50: 2.99e-07 M
Homo sapiens, SW-620, SW620 (Colon), read-out: IC50 [M] (ProliFiler-140)
  IC50: 3.06e-07 M
Homo sapiens, SiHa, SiHa (Ovary), read-out: IC50 [M] (ProliFiler-140)
  IC50: 1.47e-07 M
Homo sapiens, T47D, T-47D (Breast), read-out: IC50 [M] (ProliFiler-140)
  IC50: 4.3e-07 M
Homo sapiens, T98G, T98G (Brain), read-out: IC50 [M] (ProliFiler-140)
  IC50: 1.17e-06 M
Homo sapiens, U2OS, U2OS (Bone), read-out: IC50 [M] (ProliFiler-140)
  IC50: 1.14e-07 M
Homo sapiens, U-87 MG, U87MG (Brain), read-out: IC50 [M] (ProliFiler-140)
  IC50: 1.6e-07 M
Homo sapiens, U-118-MG, U118MG (Brain), read-out: IC50 [M] (ProliFiler-140)
  IC50: 2.57e-07 M
Homo sapiens, U-251, U251MG (Brain), read-out: IC50 [M] (ProliFiler-140)
  IC50: 7.8e-07 M
Homo sapiens, U-266, U-266 (Blood), read-out: IC50 [M] (ProliFiler-140)
  IC50: 1.11e-07 M
Homo sapiens, U-937, U-937 (Blood), read-out: IC50 [M] (ProliFiler-140)
  IC50: 2.57e-08 M
Homo sapiens, ZR-75-1, ZR-75-1 (Breast), read-out: IC50 [M] (ProliFiler-140)
  IC50: 1.35e-06 M
Ishikawa (Endometrium), listed as Dox, read-out: IC50 [M] (ProliFiler-140)
  IC50: 7.74e-08 M
J82 (Bladder), read-out: IC50 [M] (ProliFiler-140)
  IC50: 7.98e-07 M
JIMT-1 (Breast), listed as Dox, read-out: IC50 [M] (ProliFiler-140)
  IC50: 1.29e-06 M
Jurkat (Blood), listed as Dox, read-out: IC50 [M] (ProliFiler-140)
  IC50: 4e-08 M
K562 (Blood), listed as Dox, read-out: IC50 [M] (ProliFiler-140)
  IC50: 4.42e-07 M
KG-1 (Blood), read-out: IC50 [M] (ProliFiler-140)
  IC50: 1.21e-06 M
KG-1 a (Blood), listed as Dox, read-out: IC50 [M] (ProliFiler-140)
  IC50: 4.9e-07 M
Kato III (Stomach), listed as Dox, read-out: IC50 [M] (ProliFiler-140)
  IC50: 8.99e-07 M
LN229 (Brain), listed as Dox, read-out: IC50 [M] (ProliFiler-140)
  IC50: 2.2e-07 M
LOU-NH91 (Lung), listed as Dox, read-out: IC50 [M] (ProliFiler-140)
  IC50: 2.89e-07 M
LOU-NH91, LOU-NH91 (Lung), read-out: IC50 [M] (ProliFiler-140)
  IC50: 2.9e-07 M
LP-1 (Blood), listed as Dox, read-out: IC50 [M] (ProliFiler-140)
  IC50: 6.62e-07 M
LP-1 (Blood), read-out: IC50 [M] (ProliFiler-140)
  IC50: 6.6e-07 M
LnCap (Prostate), listed as Dox, read-out: IC50 [M] (ProliFiler-140)
  IC50: 1.92e-07 M
M07e (Blood), listed as Dox, read-out: IC50 [M] (ProliFiler-140)
  IC50: 4.6e-08 M
M-07e, M07e (Blood), read-out: IC50 [M] (ProliFiler-140)
  IC50: 4.63e-08 M
